In US9642354B2, “Method of freezing cells” (Cellulis, S.L., priority 2010, dated 2017):

Legend:
BALB3T3 cells = assay: Cytotoxic test (MTT assay) on Balb3T3 fibroblasts thawed from two-layer frozen 96-well plate; format: cell-based; settings: 24 h treatment started 24 h post-thawing, 5-Fluorouracil 20, 40, 80, 100 μg/ml, Tamoxifen 0.02, 1.25, 2.5, 5 μM
Method: (§1) Balb3T3 (ATCC, LCC Standards) fibroblasts and smooth muscle aortic cells (SMAC, freshly isolated from Sprague Dawley rats, Harlan Laboratories) primary cells were cultured in complete culture medium consisting of endotoxin-free DMEM (Sigma-Aldrich) supplemented with 10% FCS, 100 μg/ml penicillin and 100 IU/ml streptomycin (Sigma-Aldrich). […] The resulting cells were allowed to grow for twelve days prior to cryopresentation. Both cell types were grown in flasks until they were 80% confluent and then harvested. Harvesting took place by incubating cells in 5 ml of PBS with 0.05% EDTA for 2 minutes, and final detachment was achieved by incubation in 0.1% trypsin and 0.05% EDTA for another 5 minutes. Cells were centrifuged at 400×G for 5 minutes. Then, a total of 4.8 ml of a solution at 4° C. containing 50,000 cells/50 μl of freezing 80% DMEM, 10% FCS, 10% DMSO (AppliChem) medium was prepared (cell density determined by haemocytometer), forming the so-called freezing solution. Besides, 100 μl of complete culture medium was disposed in each cell of a 96-well plate and frozen down to −80° C. Once frozen, the plate is recovered and 50 μl/well of the said freezing solution were added on top each well containing 100 μl of complete culture medium already frozen. […] Twenty four hours later a MTT assay was performed and cytotoxicity was calculated according to the absorbance values. […]

Smac cells = assay: Cytotoxic test (MTT assay) on smooth muscle aortic cells (SMAC) thawed from two-layer frozen 96-well plate; format: cell-based, rat; settings: 24 h treatment started 24 h post-thawing, 5-Fluorouracil 20, 40, 80, 100 μg/ml, Tamoxifen 0.02, 1.25, 2.5, 5 μM
Method: as §1

| Compound | cytotoxic response of BALB3T3 cells (BALB3T3 cells) | cytotoxic response of Smac cells (Smac cells) |
| --- | --- | --- |
| CC/C(=C(\c1ccccc1)c1ccc(OCCN(C)C)cc1)c1ccccc1 [Tamoxifen] | Concentration dependent cytotoxic response | Concentration dependent cytotoxic response |
| O=c1[nH]cc(F)c(=O)[nH]1 [5-Fluorouracil] | Concentration dependent cytotoxic response | Concentration dependent cytotoxic response |
